The source made the active and inactive calls.
What was measured:
X-box-binding protein 1 = biological target: T1, X-box-binding protein 1 (Homo sapiens, UniProt P17861); format: functional, Cricetulus griseus;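 further: confirmatory dose-response counter-screen serving a CHOP assay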
T1 sequence (P17861 whole entry): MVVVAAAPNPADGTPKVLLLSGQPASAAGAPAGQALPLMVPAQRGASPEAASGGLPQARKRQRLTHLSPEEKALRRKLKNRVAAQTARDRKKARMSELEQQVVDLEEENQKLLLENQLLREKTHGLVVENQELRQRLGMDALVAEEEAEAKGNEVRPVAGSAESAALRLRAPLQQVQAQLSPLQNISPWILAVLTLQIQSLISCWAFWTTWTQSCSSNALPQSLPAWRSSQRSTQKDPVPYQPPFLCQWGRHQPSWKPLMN

Estrogen receptor beta = Estrogen receptor beta (Homo sapiens, UniProt Q92731); assay: ERβ–SRC-3 coactivator interaction inhibitors, confirmation, orthogonal assay, biochemical, ELISA, streptavidin-HRP readout (AID 1060)
Bcl-2-like protein 10 = biological target: T2, Bcl-2-like protein 10 (Homo sapiens, UniProt Q9HD36); assay: displacers of TR3 peptide from Bcl-B, primary screen, selectivity assay for Bfl-1 inhibitor project, biochemical, fluorescence polarization, FITC-TR3 peptide (AID 748);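 further: fluorescence polarization from a fluorescein-labelled TR3 peptide binding purified Bcl-B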
T2 sequence (Q9HD36 whole entry): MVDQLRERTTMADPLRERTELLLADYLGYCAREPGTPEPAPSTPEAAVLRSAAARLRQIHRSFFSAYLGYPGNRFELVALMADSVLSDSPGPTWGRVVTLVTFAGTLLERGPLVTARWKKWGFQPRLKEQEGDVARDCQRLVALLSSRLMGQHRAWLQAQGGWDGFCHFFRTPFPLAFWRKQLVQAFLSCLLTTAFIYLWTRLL

[1] = biological target: Intestinal-type alkaline phosphatase (Homo sapiens, UniProt P09923); assay: Dose Response confirmation of uHTS hits from a small molecule inhibitors of human intestinal alkaline phosphatase via a luminescent assay. [Related pubchem assays (depositor defined):AID2544, AID2574]; format: functional
Cytochrome P450 2C9 = Cytochrome P450 2C9 (Homo sapiens, UniProt P11712); settings: Potency
Cytochrome P450 2D6 = Cytochrome P450 2D6 (Homo sapiens, UniProt P10635); assay: qHTS Assay for Inhibitors and Substrates of Cytochrome P450 2D6. [Related pubchem assays: 410 ]; format: ADME; settings: read-out: Potency
Cytochrome P450 3A4 = Cytochrome P450 3A4 (Homo sapiens, UniProt P08684); settings: Potency;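 further: confirmatory qHTS run detecting inhibitors and substrates of CYP3A4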
Estrogen receptor = biological target: T3, Estrogen receptor (Homo sapiens, UniProt P03372);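 further: potency for inhibiting coactivator peptide recruitment to the receptor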
T3 sequence (P03372 whole entry): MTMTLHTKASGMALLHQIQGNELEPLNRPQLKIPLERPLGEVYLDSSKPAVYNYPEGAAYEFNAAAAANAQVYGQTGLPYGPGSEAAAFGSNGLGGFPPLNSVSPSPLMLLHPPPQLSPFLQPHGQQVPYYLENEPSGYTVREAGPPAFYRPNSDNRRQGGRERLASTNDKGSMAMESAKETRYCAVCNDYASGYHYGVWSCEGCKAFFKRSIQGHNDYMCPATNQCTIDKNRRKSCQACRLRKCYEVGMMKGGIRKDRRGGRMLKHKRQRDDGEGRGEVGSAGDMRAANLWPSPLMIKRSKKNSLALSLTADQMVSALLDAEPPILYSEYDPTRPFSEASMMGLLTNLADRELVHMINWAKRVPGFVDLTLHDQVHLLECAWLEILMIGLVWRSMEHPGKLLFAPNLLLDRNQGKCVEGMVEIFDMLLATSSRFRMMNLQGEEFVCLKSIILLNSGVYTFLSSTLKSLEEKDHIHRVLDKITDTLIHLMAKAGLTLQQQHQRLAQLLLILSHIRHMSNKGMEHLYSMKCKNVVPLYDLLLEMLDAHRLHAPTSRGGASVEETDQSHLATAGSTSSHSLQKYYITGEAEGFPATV

NS3 = NS3 (Hepatitis C virus, UniProt A3EZJ3); assay: PubChem AID 2173; set-up: species or system Hepacivirus hominis
Genome polyprotein = Genome polyprotein (dengue virus type 2, UniProt P29990); assay: Dengue-2 NS5 methyltransferase inhibitors, primary screen, biochemical, confirmation dose response (AID 588689); format: functional
Prothrombin = Prothrombin (Bos taurus, UniProt P00735); assay: thrombin inhibition, dose response, biochemical, fluorescence polarization, uHTS hits (AID 602369); format: functional
[2] = biological target: 26S proteasome non-ATPase regulatory subunit 14 (Homo sapiens, UniProt O00487); assay: inhibition of proteasome subunit RPN11 – biochemical, fluorescence polarization, uHTS hits, confirmation (AID 602368); format: functional
[3] = biological target: 72 kDa type IV collagenase (Homo sapiens, UniProt P08253); assay: Dose Response validation of uHTS RPN11 inhibitor hits using a MMP-2 Fluorescence assay.; format: functional
Troponin, cardiac muscle = Troponin, cardiac muscle (Homo sapiens, UniProt P19429+P45379+P63316); assay: inhibitors of cardiac thin filament calcium sensitivity, dose response, biochemical, fluorescence, cardiac regulated thin filaments, triplicate IC50 (AID 504742); format: protein-complex assay
Large T antigen = Large T antigen (Simian virus 40, UniProt P03070); format: functional, Betapolyomavirus macacae;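 further: Confirmatory-stage PubChem screen for compounds that inhibit SV40 T antigen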
ORF 73 = biological target: T4, ORF 73 (Human herpesvirus 8, UniProt O40947); assay: inhibitors of C-LANA binding to LBS DNA, dose response, biochemical, fluorescence polarization, cherry-picked samples (AID 504725); set-up: species or system Human gammaherpesvirus 8;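 further: fluorescence polarization of a labeled DNA duplex reporting LANA DNA binding; potency is for inhibitors that block LANA binding to the DNA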
T4 sequence (O40947 whole entry): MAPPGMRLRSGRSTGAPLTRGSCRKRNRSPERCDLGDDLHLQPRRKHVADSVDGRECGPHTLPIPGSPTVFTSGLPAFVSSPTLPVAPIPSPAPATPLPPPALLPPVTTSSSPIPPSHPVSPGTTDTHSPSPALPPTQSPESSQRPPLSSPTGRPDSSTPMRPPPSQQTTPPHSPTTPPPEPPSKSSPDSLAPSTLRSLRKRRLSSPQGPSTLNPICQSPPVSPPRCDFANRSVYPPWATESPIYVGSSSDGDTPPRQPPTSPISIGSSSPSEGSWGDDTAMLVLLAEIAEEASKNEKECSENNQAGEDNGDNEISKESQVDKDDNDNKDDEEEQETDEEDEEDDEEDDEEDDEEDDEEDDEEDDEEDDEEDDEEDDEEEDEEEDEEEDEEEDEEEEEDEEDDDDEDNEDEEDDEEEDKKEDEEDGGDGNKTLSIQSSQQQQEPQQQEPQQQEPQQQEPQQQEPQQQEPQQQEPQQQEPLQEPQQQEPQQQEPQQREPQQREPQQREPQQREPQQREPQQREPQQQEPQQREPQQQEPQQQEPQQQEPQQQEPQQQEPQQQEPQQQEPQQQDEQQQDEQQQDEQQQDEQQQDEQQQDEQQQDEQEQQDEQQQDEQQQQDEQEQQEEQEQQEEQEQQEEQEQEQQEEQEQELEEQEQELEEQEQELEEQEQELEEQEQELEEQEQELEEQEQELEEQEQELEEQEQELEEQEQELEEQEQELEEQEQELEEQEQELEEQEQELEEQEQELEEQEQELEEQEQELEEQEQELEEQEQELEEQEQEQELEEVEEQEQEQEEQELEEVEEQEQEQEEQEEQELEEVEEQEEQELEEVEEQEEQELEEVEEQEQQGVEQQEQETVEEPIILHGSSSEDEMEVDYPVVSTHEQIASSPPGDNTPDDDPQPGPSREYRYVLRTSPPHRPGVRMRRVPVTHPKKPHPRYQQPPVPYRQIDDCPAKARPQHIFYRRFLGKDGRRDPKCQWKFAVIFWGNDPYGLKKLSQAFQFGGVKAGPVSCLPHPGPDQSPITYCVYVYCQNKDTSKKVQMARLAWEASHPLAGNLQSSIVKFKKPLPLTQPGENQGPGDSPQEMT

INS1 = assay: beta cell apoptosis inhibitors, cytokine rescue, dose response, luminescence, retest (AID 449756); format: functional, cell-based; settings: Rattus norvegicus;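 further: cell death triggered by IL-1 beta plus TNF-alpha plus IFN-gamma mixture; protective hits raise ATP signal compared with cytokine alone wells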
[4] = HepG2 cell cytotoxicity, dose response, cytotoxicity control for non-replicating M. tuberculosis project (AID 489018); format: functional; settings: Mycobacterium tuberculosis
[5] = Vero E6 cell cytotoxicity, dose response, cytotoxicity control for non-replicating M. tuberculosis project, secondary assay (AID 492998); format: functional, VeroE6; settings: Vero C1008
[6] = THP-1 cell cytotoxicity, dose response, cytotoxicity control for non-replicating M. tuberculosis project (AID 489025); format: functional
cells = format: functional

For `O=C(Oc1ccc(O)cc1)C12CC3CC(CC(C3)C1)C2`, the “Absolute IC50 (XBP1)” value (X-box-binding protein 1) was 10 µM.

With `CCN1CCN(c2ccc(NC(=O)c3cccc4ncccc34)cc2)CC1` the IC50 (Estrogen receptor beta) was 0.121 µM (not active) and the IC50 (Bcl-2-like protein 10) was 50.1 µM (inactive).

With `O=C(NC1CCCCCC1)c1ccc(-n2cnnc2)cc1` the IC50 [1] was > 100 µM (inactive).

For `C=CCc1cccc(C2C(C)CCC3C(=O)N4C(CCC(C)C4c4cccc(CC=C)c4)C(=O)N32)c1` (centres undefined), the AC50 (Cytochrome P450 2C9) was 3.98 µM (inconclusive), the AC50 (Cytochrome P450 2D6) was 3.16 µM (inconclusive) and the AC50 (Cytochrome P450 3A4) was 0.2 µM (inconclusive).

For `Cc1ccccc1NC(=O)CSc1nnc(-c2ccco2)c(-c2ccco2)n1`, the IC50 (Estrogen receptor) was 14.9 µM (active), the IC50 (Estrogen receptor beta) was 1.98 µM (not active) and the IC50 (Bcl-2-like protein 10) was 27.3 µM (active). For the same compound, the IC50 (NS3) was 8.62 µM (active) and the IC50 (Genome polyprotein) was 64.7 µM (active).

For `O=C(O)C(Cc1ccccc1)N1C(=O)/C(=C/C=C/c2ccco2)SC1=S` (centres undefined), the IC50 (Prothrombin) was 75.3 µM (active), the IC50 [2] was 7.33 µM (active) and the IC50 [3] was 0.947 µM (active). The IC50 (Troponin, cardiac muscle) was > 71.5 µM (inactive), the IC50 (Large T antigen) was 33.5 µM (active) and the AC50 (ORF 73) was 108 µM (active).

In the case of `C/C(N)=C(/C#N)C(=O)CSc1nc2ccccc2[nH]1`, the IC50 (Bcl-2-like protein 10) is reported as 22.3 µM (active).

With `C/C(=N\NC(=O)c1ccccc1OCc1ccc(F)cc1)c1ccccn1` the AC50 (INS1) was 1.83 µM (active), the CC50 [4] was 3.6 µM (active) and the CC50 [5] was 2.69 µM (active). The CC50 [6] was 0.765 µM (active) and the IC50 (cells) was 3.02 µM (active).

Source: ChEMBL document CHEMBL1201862, “PubChem BioAssay data set” (2004)
